Measured values: US20230054749A1, “Herbicide Combinations Comprising Glufosinate and Flumiclorac-pentyl” (BASF SE, priority 2020, published 2023)
Read-outs that look alike come from different tables or passages of the source.

Test system: Abutilon theophrasti
Experiment: Greenhouse post-emergence herbicidal activity (plant damage, 0 to 100% scale vs untreated control)
Type: in vivo
Details: 0.796 g ai/ha, ABUTH, AMS + NIS added, read-out: Solo Flumiclorac (0.796 g ai/ha) % activity
Excerpt: For the post-emergence treatment, the test plants were first grown to 3.5 to 4.5 inch (8.9 to 11.4 cm) tall, and only then treated. Here, the herbicidal compositions were suspended or emulsified in water as distribution medium and sprayed using finely distributing nozzles.
Flumiclorac (commercial product name: Resource) was used as an emulsifiable concentrate having an active ingredient concentration of 100 g/l. Glufosinate (commercial product name: Liberty) was used as an aqueous soluble liquid of glufosinate ammonium having an active ingredient concentration of 280 g/l. Adjuvants of ammonium sulfate (AMS) and non-ionic surfactant (NIS) were added in all treatments. AMS and NIS were AMS Liquid and Induce at rates of 1680 g/ha and 0.25% (v/v), respectively.
The test period extended over 21 days after treatment (DAT). During this time, the plants were tended and their response to the individual treatments was evaluated.
The evaluation for the damage caused by the chemical compositions was carried out using a scale from 0 to 100%, compared to the untreated control plants. Here, 0 means no damage and 100 means complete destruction of the plants.
E = X + Y - (X.Y/100) • where X = effect in percent using flumiclorac at an application rate a; • Y = effect in percent using glufosinate at application rate b; • E = expected effect (in %) of flumiclorac plus glufosinate at application rates a + b.
The value E corresponds to the effect (plant damage or injury) which is to be expected if the activity of the individual compounds is just additive.

CCCCCOC(=O)COc1cc(N2C(=O)C3=C(CCCC3)C2=O)c(F)cc1Cl [Flumiclorac, flumiclorac-pentyl]
inhibition at 0.796 g/ha (168 h, 7 DAT): 53% | inhibition at 0.796 g/ha (336 h, 14 DAT): 45% | inhibition at 0.796 g/ha (504 h, 21 DAT): 41%
